Experimental data: patent publication US8097269B2, “Bioactive material delivery systems comprising sol-gel compositions” (Celonova Biosciences, Inc., priority 2004, dated 2012)

Experiments:
[1] = pH 5
Description: Referring to FIG. 4, elution of DAA-I from the TEOS coated stents was measured by analyzing the amount of DAA-I found in 0.1% solutol in ammonium acetate buffer, pH 5.0, as a function of time, when the stents were incubated in this medium at 37° C. The amount of DAA-I was determined by integrating the DAA-I peak in high performance liquid chromatography (HPLC) profiles using a Altima C-8 column (Altech, Chicago Ill.) and comparison to standard curves.

[2] = Elution of DAA-I from stents coated with increasing amounts of TEOS; type: physicochemical; details: 0.1-0.5M TEOS with constant DAA-I 1.25 mg/mL; effect of increasing TEOS to drug molar ratio; 9 mm stents; FIGS. 5A-5B
Description: To explore the effects of increasing the amount of TEOS on the rate of elution of DAA-I, increasing amounts, from 0.1-0.5M of TEOS were added to a constant amount of DAA-I (1.25 mg/mL) according to the methods and protocols described above. The stents (9 mm, n=4) were sprayed with each of the solutions as described above, weighed, and the amounts DAA-I eluted over a 24 hour period were compared.

des-aspartate angiotensin I [DAA-I]
rate of DAA-I elution [1]: slow the rate of DAA-I elution | rate of release of the drug into aqueous solution [2]: significantly delayed the rate of release
